Where “and” joins values, the source holds several entries; their conditions need not be identical. Identical values can stand only once.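 Results reflect a 48-hour exposure of cells in 96-well plates to compound at five concentrations. Here, GI50 denotes the concentration required for 50% inhibition of growth. TGI denotes the concentration required for complete inhibition of growth.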
Legend:
Test in all cases: NCI tumour cell line growth inhibition, 48 h
[1] = system: DMS 273 small cell lung
[2] = system: HOP-18 NSCLC
[3] = system: KM20L2 colon
[4] = system: LXFL 529 NSCLC
[5] = system: SNB-78 CNS
[6] = system: XF 498 CNS
[7] = system: RXF-631 renal
[8] = system: MDA-N
[9] = system: P388 leukemia
[10] = system: P388/ADR leukemia
[11] = system: SN12K1 renal

Row | Compound | TGI [1] | TGI [2] | TGI [3] | TGI [4] [µM] | TGI [5] [µM] | TGI [6] | TGI [7] [µM] | other results
1 | O=C(O)C1CC2C=CCC(C2)C1 (stereo not given) | > 100 µM | > 100 µM | > 100 µM | > 100 | > 100 | > 100 µM | – | –
2 | CCOC(=O)NN1C(=O)C(=P(c2ccccc2)(c2ccccc2)c2ccccc2)C(C(=O)OC)=C1C | > 100 µM | > 100 µM | > 100 µM | > 100 | > 100 | > 100 µM | – | –
3 | N.N.N.N.O=S([O-])[O-].[Co+3].[N-]=[N+]=[N-] | > 100 µM | – | > 100 µM | > 100 | > 100 | – | – | GI50 [1]: > 100000 nM; GI50 [3]: > 100000 nM; GI50 [4]: > 100 µM; GI50 [5]: > 100 µM
4 | O=C1N=C2N=C(c3ccc(Cl)cc3)N(c3ccc(Cl)cc3)N2Sc2ccccc21 | > 100 µM | > 100 µM | > 100 µM | > 100 | > 100 | 99.4 µM | – | –
5 | CN(C)C(=S)/N=c1\ssc(=Nc2ccccc2)n1-c1ccccc1 | 48.5 µM | > 100 µM | – | – | 79.7 | – | > 100 | –
6 | O=C(O)CCN1C(=S)CSC1=S | – | – | – | – | – | – | – | TGI [8]: > 100 µM
7 | Nc1ccc(C(=O)N/C(=C\c2ccc3c(c2)OCO3)c2nc3ccccc3s2)cc1 | 34.2 µM | – | 28.7 µM | 22.4 | 30.5 | 25.5 µM | 35.1 | –
8 | COC(=O)C1=C(O)c2cc(OC)c(OC)c(OC)c2C(c2ccc3c(c2)OCO3)[C@@H]1C(=O)OC (stereo not given in full) | > 100 µM | > 100 µM | 6.43 µM | > 100 | > 100 | – | > 100 | –
9 | Cc1c(-c2ccc(-c3ccccc3F)cc2)nc2ccc(F)cc2c1C(=O)O | 29.3 µM and 89.9 µM | 192 µM and 182 µM | 170 µM and 171 µM | – | – | 164 µM and 230 µM | – | GI50 [1]: 500 nM; GI50 [2]: 57 µM; GI50 [3]: 1120 nM; GI50 [8]: 979 nM and 762 nM; GI50 [9]: 500 nM; TGI [9]: 89.8 µM and 106 µM; GI50 [10]: 500 nM; TGI [10]: 60 µM and 125 µM; TGI [11]: 70.9 µM; GI50 [6]: 106 µM
10 | CC(=O)/C(=N\N=C(N)N)c1ccccc1 | – | – | – | – | – | – | – | TGI [8]: > 100 µM
11 | O=C1C=C(NCCc2ccccc2)c2ccccc2C1=O | 7.55 µM | 3 µM | 18.7 µM | 19.1 | 42.8 | – | – | TGI [8]: 3.39 µM
12 | CCOC(=N)CC(=O)Nc1ccccc1CC | > 100 µM | > 100 µM | > 100 µM | > 100 | > 100 | > 100 µM | > 100 | –
13 | CCOC(=O)C(Cc1cc(OC)c(CC(C(=O)OCC)C(=O)OCC)cc1OC)C(=O)OCC | > 100 µM | – | > 100 µM | > 100 | > 100 | 53.7 µM | – | TGI [8]: > 100 µM
14 | COc1ccc(OCC(=O)O)c2c1CCC(C)C2=O (stereo not given) | > 100 µM | > 100 µM | > 100 µM | – | > 100 | > 100 µM | > 100 | –
15 | c1ccc(N2CCN(CCN3CCc4c([nH]c5ccccc45)C3c3cccnc3)CC2)cc1 (stereo not given) | > 100 µM | > 100 µM | > 100 µM | > 100 | > 100 | > 100 µM | > 100 | –

Reference: PubChem BioAssay (NCI)
